Paper PMC12696368, “Ancestral Chaperonins Provide the First Structural Glimpse into Early Multimeric Protein Evolution” (Molecular Biology and Evolution, 2025)

What was measured:
Experiment in all cases: phosphate release (BIOMOL GREEN), […]-60 °C
Type in all cases: biochemical
Conditions in all cases: 0.5 mM ATP, 5 mM MgCl2, 150 mM KCl, 50 mM HEPES pH 7.4
AFCB = biological target: T1, AFCB (synthetic construct, UniProt Z9BU06U866)
T1 construct: ancestral reconstruction, C-terminal His-tag, expressed in E. coli BL21 (DE3); 7-subunit double rings

E. coli GroEL = biological target: T2, E. coli GroEL (Escherichia coli, UniProt P0A6F5)
T2 construct: recombinant, expressed and purified as the ancestral proteins (C-terminal His-tag, E. coli BL21 (DE3)); no GroES; double ring of two seven-subunit rings

ACI = biological target: T3, ACI (synthetic construct, UniProt Z9T0T8YL69)
T3 construct: ancestral reconstruction, C-terminal His-tag, expressed in E. coli BL21 (DE3); single heptameric ring

ACIII = biological target: T4, ACIII (synthetic construct, UniProt Z9ZN04QL74)
T4 construct: ancestral reconstruction, C-terminal His-tag, expressed in E. coli BL21 (DE3); eight-subunit double rings
T4 sequence (Z9ZN04QL74 1-518): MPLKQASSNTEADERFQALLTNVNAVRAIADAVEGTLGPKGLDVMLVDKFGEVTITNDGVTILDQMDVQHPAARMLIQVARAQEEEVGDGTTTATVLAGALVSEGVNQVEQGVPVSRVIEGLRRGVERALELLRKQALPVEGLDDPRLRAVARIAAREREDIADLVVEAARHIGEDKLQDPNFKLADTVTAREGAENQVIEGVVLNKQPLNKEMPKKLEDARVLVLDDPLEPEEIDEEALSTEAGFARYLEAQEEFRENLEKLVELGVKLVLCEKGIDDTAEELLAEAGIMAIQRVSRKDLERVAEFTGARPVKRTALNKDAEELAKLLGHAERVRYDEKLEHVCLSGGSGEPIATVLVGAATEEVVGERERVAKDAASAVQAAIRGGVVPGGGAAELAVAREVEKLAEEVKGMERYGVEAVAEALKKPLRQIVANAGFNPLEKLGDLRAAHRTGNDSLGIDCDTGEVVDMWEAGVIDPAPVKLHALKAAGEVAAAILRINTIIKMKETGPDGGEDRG

T2 sequence (P0A6F5 2-548): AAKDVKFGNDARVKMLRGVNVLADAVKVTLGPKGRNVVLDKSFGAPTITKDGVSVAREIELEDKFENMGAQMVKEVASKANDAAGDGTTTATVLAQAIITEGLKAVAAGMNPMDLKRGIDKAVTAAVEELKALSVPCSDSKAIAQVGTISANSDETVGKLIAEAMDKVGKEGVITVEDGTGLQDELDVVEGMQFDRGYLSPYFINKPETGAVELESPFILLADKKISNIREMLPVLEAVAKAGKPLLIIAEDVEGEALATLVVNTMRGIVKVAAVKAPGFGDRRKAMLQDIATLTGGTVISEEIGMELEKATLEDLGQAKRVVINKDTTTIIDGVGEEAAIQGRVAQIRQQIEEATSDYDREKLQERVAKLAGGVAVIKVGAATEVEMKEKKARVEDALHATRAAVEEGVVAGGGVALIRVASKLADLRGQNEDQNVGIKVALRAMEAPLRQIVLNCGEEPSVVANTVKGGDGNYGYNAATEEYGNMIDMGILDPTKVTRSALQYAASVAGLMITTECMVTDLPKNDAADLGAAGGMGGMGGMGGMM

Nc1ncnc2c1ncn2[C@@H]1O[C@H](COP(=O)(O)OP(=O)(O)OP(=O)(O)O)[C@@H](O)[C@H]1O [ATP]
phosphate release (BIOMOL GREEN), 30-60 °C (AFCB): showed the highest rate of ATP hydrolysis, followed by AFCB
phosphate release (BIOMOL GREEN), 30-60 °C (E. coli GroEL): E. coli GroEL, ACI and ACIII exhibited similar hydrolysis patterns
phosphate release (BIOMOL GREEN), 30-60 °C (ACI): E. coli GroEL, ACI and ACIII exhibited similar hydrolysis patterns
phosphate release (BIOMOL GREEN), 30-60 °C (ACIII): E. coli GroEL, ACI and ACIII exhibited similar hydrolysis patterns
